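Exposure lasted 48 hours, with cells grown in 96-well plates and compounds tested at five concentrations. GI50 = concentration required for 50% inhibition of growth. Definition used: TGI = concentration required for complete inhibition of growth.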
Experiments:
Assay in all cases: DTP human tumour cell line panel, 48 h
HOP-92 NSCLC = test system: HOP-92 NSCLC
HL-60(TB) leukemia = test system: HL-60(TB) leukemia
U251 CNS = test system: U251 CNS
SNB-75 CNS = test system: SNB-75 CNS
K-562 leukemia = test system: K-562 leukemia
A498 renal = test system: A498 renal
A549 NSCLC = test system: A549 NSCLC
NCI-H460 lung = test system: NCI-H460 lung
T-47D breast = test system: T-47D breast
COLO 205 colon = test system: COLO 205 colon
IGROV1 ovarian = test system: IGROV1 ovarian
SF-268 CNS = test system: SF-268 CNS
NCI-H226 lung = test system: NCI-H226 lung
MALME-3M melanoma = test system: MALME-3M melanoma
786-0 renal = test system: 786-0 renal
UACC-257 melanoma = test system: UACC-257 melanoma
SK-MEL-2 melanoma = test system: SK-MEL-2 melanoma
UACC-62 melanoma = test system: UACC-62 melanoma
MCF7 breast = test system: MCF7 breast
ACHN renal = test system: ACHN renal
HS 578T breast = test system: HS 578T breast
PC-3 prostate = test system: PC-3 prostate
NCI-H23 lung = test system: NCI-H23 lung
MDA-MB-435 = test system: MDA-MB-435
OVCAR-5 ovarian = test system: OVCAR-5 ovarian
DU-145 prostate = test system: DU-145 prostate
MDA-MB-231 breast = test system: MDA-MB-231 breast
SF-295 CNS = test system: SF-295 CNS
HOP-62 NSCLC = test system: HOP-62 NSCLC
BT-549 breast = test system: BT-549 breast
SK-MEL-5 melanoma = test system: SK-MEL-5 melanoma
RXF 393 renal = test system: RXF 393 renal
SNB-19 CNS = test system: SNB-19 CNS
KM12 colon = test system: KM12 colon
CAKI-1 renal = test system: CAKI-1 renal
OVCAR-8 ovarian = test system: OVCAR-8 ovarian
OVCAR-3 ovarian = test system: OVCAR-3 ovarian
HT29 colon = test system: HT29 colon
HCT-116 colon = test system: HCT-116 colon
M14 melanoma = test system: M14 melanoma
RPMI-8226 leukemia = test system: RPMI-8226 leukemia
HCT-15 colon = test system: HCT-15 colon
EKVX NSCLC = test system: EKVX NSCLC
LOX IMVI melanoma = test system: LOX IMVI melanoma
TK-10 renal = test system: TK-10 renal
SW-620 colon = test system: SW-620 colon
SK-MEL-28 melanoma = test system: SK-MEL-28 melanoma
SR leukemia = test system: SR leukemia
SN12C renal = test system: SN12C renal
MOLT-4 leukemia = test system: MOLT-4 leukemia
NCI/ADR-RES ovarian = test system: NCI/ADR-RES ovarian
SK-OV-3 ovarian = test system: SK-OV-3 ovarian
CCRF-CEM leukemia = test system: CCRF-CEM leukemia
HCC-2998 colon = test system: HCC-2998 colon
SF-539 CNS = test system: SF-539 CNS
NCI-H522 lung = test system: NCI-H522 lung
OVCAR-4 ovarian = test system: OVCAR-4 ovarian
UO-31 renal = test system: UO-31 renal

Question: Which GI50 (HOP-92 NSCLC) does the source give for CCO/C=N/C1=C(C#N)C(c2ccc(F)cc2)c2sc3c(CC)cccc3c2O1 (stereo unspecified) here?
Answer: 193 nM

Question: What about the TGI (HOP-92 NSCLC) of the same compound?
Answer: 6120 nM

Question: And the GI50 (HL-60(TB) leukemia)?
Answer: 337 nM

Question: And the TGI (HL-60(TB) leukemia)?
Answer: 5250 nM

Question: What about the GI50 (U251 CNS) of the same compound?
Answer: 468 nM

Question: What about the TGI (U251 CNS) of the same compound?
Answer: 11800 nM

Question: And the GI50 (SNB-75 CNS)?
Answer: 206 nM

Question: And the TGI (SNB-75 CNS)?
Answer: 2830 nM

Question: What about the GI50 (K-562 leukemia) of the same compound?
Answer: 292 nM

Question: What about the TGI (K-562 leukemia) of the same compound?
Answer: 13600 nM

Question: What about the GI50 (A498 renal) of the same compound?
Answer: 199 nM

Question: What about the TGI (A498 renal) of the same compound?
Answer: 897 nM

Question: And the GI50 (A549 NSCLC)?
Answer: 518 nM

Question: What about the TGI (A549 NSCLC) of the same compound?
Answer: 14200 nM

Question: What about the GI50 (NCI-H460 lung) of the same compound?
Answer: 379 nM

Question: And the TGI (NCI-H460 lung)?
Answer: 5260 nM

Question: What about the GI50 (T-47D breast) of the same compound?
Answer: 440 nM

Question: What about the TGI (T-47D breast) of the same compound?
Answer: 26500 nM

Question: And the GI50 (COLO 205 colon)?
Answer: 400 nM

Question: And the TGI (COLO 205 colon)?
Answer: 2840 nM

Question: And the GI50 (IGROV1 ovarian)?
Answer: 401 nM

Question: What about the TGI (IGROV1 ovarian) of the same compound?
Answer: 14100 nM

Question: What about the GI50 (SF-268 CNS) of the same compound?
Answer: 2030 nM

Question: What about the TGI (SF-268 CNS) of the same compound?
Answer: 17400 nM

Question: What about the GI50 (NCI-H226 lung) of the same compound?
Answer: 1030 nM

Question: And the TGI (NCI-H226 lung)?
Answer: 11600 nM

Question: And the GI50 (MALME-3M melanoma)?
Answer: 542 nM

Question: What about the TGI (MALME-3M melanoma) of the same compound?
Answer: 23800 nM

Question: What about the GI50 (786-0 renal) of the same compound?
Answer: 651 nM

Question: And the TGI (786-0 renal)?
Answer: 13200 nM

Question: And the GI50 (UACC-257 melanoma)?
Answer: 12700 nM

Question: What about the TGI (UACC-257 melanoma) of the same compound?
Answer: 31300 nM

Question: What about the GI50 (SK-MEL-2 melanoma) of the same compound?
Answer: 597 nM

Question: What about the TGI (SK-MEL-2 melanoma) of the same compound?
Answer: 21500 nM

Question: What about the GI50 (UACC-62 melanoma) of the same compound?
Answer: 371 nM

Question: And the TGI (UACC-62 melanoma)?
Answer: 17600 nM

Question: And the GI50 (MCF7 breast)?
Answer: 361 nM

Question: What about the TGI (MCF7 breast) of the same compound?
Answer: 12500 nM

Question: And the GI50 (ACHN renal)?
Answer: 711 nM

Question: What about the TGI (ACHN renal) of the same compound?
Answer: 14100 nM

Question: What about the GI50 (HS 578T breast) of the same compound?
Answer: 385 nM

Question: What about the TGI (HS 578T breast) of the same compound?
Answer: 13000 nM

Question: What about the GI50 (PC-3 prostate) of the same compound?
Answer: 236 nM

Question: And the TGI (PC-3 prostate)?
Answer: 11400 nM

Question: And the GI50 (NCI-H23 lung)?
Answer: 763 nM

Question: What about the TGI (NCI-H23 lung) of the same compound?
Answer: 14400 nM

Question: What about the GI50 (MDA-MB-435) of the same compound?
Answer: 160 nM

Question: And the TGI (MDA-MB-435)?
Answer: 446 nM

Question: And the GI50 (OVCAR-5 ovarian)?
Answer: 670 nM

Question: And the TGI (OVCAR-5 ovarian)?
Answer: 14600 nM

Question: What about the GI50 (DU-145 prostate) of the same compound?
Answer: 401 nM

Question: What about the TGI (DU-145 prostate) of the same compound?
Answer: 13000 nM

Question: What about the GI50 (MDA-MB-231 breast) of the same compound?
Answer: 664 nM

Question: What about the TGI (MDA-MB-231 breast) of the same compound?
Answer: 14300 nM

Question: And the GI50 (SF-295 CNS)?
Answer: 270 nM

Question: What about the TGI (SF-295 CNS) of the same compound?
Answer: 2600 nM

Question: What about the GI50 (HOP-62 NSCLC) of the same compound?
Answer: 453 nM

Question: And the TGI (HOP-62 NSCLC)?
Answer: 17600 nM

Question: And the GI50 (BT-549 breast)?
Answer: 1690 nM

Question: What about the TGI (BT-549 breast) of the same compound?
Answer: 8530 nM

Question: And the GI50 (SK-MEL-5 melanoma)?
Answer: 482 nM

Question: And the TGI (SK-MEL-5 melanoma)?
Answer: 11400 nM

Question: And the GI50 (RXF 393 renal)?
Answer: 177 nM

Question: And the TGI (RXF 393 renal)?
Answer: 531 nM

Question: What about the GI50 (SNB-19 CNS) of the same compound?
Answer: 466 nM

Question: And the TGI (SNB-19 CNS)?
Answer: 15800 nM

Question: What about the GI50 (KM12 colon) of the same compound?
Answer: 384 nM

Question: What about the TGI (KM12 colon) of the same compound?
Answer: 13500 nM

Question: And the GI50 (CAKI-1 renal)?
Answer: 359 nM

Question: What about the TGI (CAKI-1 renal) of the same compound?
Answer: 17100 nM

Question: What about the GI50 (OVCAR-8 ovarian) of the same compound?
Answer: 508 nM

Question: What about the TGI (OVCAR-8 ovarian) of the same compound?
Answer: 15300 nM

Question: What about the GI50 (OVCAR-3 ovarian) of the same compound?
Answer: 454 nM

Question: What about the TGI (OVCAR-3 ovarian) of the same compound?
Answer: 13000 nM

Question: What about the GI50 (HT29 colon) of the same compound?
Answer: 351 nM

Question: And the TGI (HT29 colon)?
Answer: 11200 nM

Question: What about the GI50 (HCT-116 colon) of the same compound?
Answer: 395 nM

Question: What about the TGI (HCT-116 colon) of the same compound?
Answer: 11200 nM

Question: What about the GI50 (M14 melanoma) of the same compound?
Answer: 292 nM

Question: And the TGI (M14 melanoma)?
Answer: 12800 nM

Question: What about the GI50 (RPMI-8226 leukemia) of the same compound?
Answer: 331 nM

Question: And the TGI (RPMI-8226 leukemia)?
Answer: 5520 nM

Question: And the GI50 (HCT-15 colon)?
Answer: 389 nM

Question: And the TGI (HCT-15 colon)?
Answer: 10900 nM

Question: And the GI50 (EKVX NSCLC)?
Answer: 488 nM

Question: What about the TGI (EKVX NSCLC) of the same compound?
Answer: 16700 nM

Question: And the GI50 (LOX IMVI melanoma)?
Answer: 732 nM

Question: And the TGI (LOX IMVI melanoma)?
Answer: 11100 nM

Question: And the GI50 (TK-10 renal)?
Answer: 8080 nM

Question: And the TGI (TK-10 renal)?
Answer: 24000 nM

Question: And the GI50 (SW-620 colon)?
Answer: 478 nM

Question: And the TGI (SW-620 colon)?
Answer: 13400 nM

Question: What about the GI50 (SK-MEL-28 melanoma) of the same compound?
Answer: 1280 nM

Question: What about the TGI (SK-MEL-28 melanoma) of the same compound?
Answer: 19700 nM

Question: What about the GI50 (SR leukemia) of the same compound?
Answer: 451 nM

Question: What about the TGI (SR leukemia) of the same compound?
Answer: 14900 nM

Question: What about the GI50 (SN12C renal) of the same compound?
Answer: 609 nM

Question: And the TGI (SN12C renal)?
Answer: 12800 nM

Question: And the GI50 (MOLT-4 leukemia)?
Answer: 629 nM

Question: And the TGI (MOLT-4 leukemia)?
Answer: 13400 nM

Question: What about the GI50 (NCI/ADR-RES ovarian) of the same compound?
Answer: 226 nM

Question: And the TGI (NCI/ADR-RES ovarian)?
Answer: 3660 nM

Question: What about the GI50 (SK-OV-3 ovarian) of the same compound?
Answer: 812 nM

Question: And the TGI (SK-OV-3 ovarian)?
Answer: 21600 nM

Question: What about the GI50 (CCRF-CEM leukemia) of the same compound?
Answer: 282 nM

Question: And the TGI (CCRF-CEM leukemia)?
Answer: 6320 nM

Question: And the GI50 (HCC-2998 colon)?
Answer: 641 nM

Question: And the TGI (HCC-2998 colon)?
Answer: 6650 nM

Question: And the GI50 (SF-539 CNS)?
Answer: 280 nM

Question: What about the TGI (SF-539 CNS) of the same compound?
Answer: 1230 nM

Question: And the GI50 (NCI-H522 lung)?
Answer: 209 nM

Question: And the TGI (NCI-H522 lung)?
Answer: 5610 nM

Question: And the GI50 (OVCAR-4 ovarian)?
Answer: 1570 nM

Question: And the TGI (OVCAR-4 ovarian)?
Answer: 17800 nM

Question: What about the GI50 (UO-31 renal) of the same compound?
Answer: 637 nM

Question: And the TGI (UO-31 renal)?
Answer: 17000 nM
